The compounds below were run against human capsaicin receptor (VR1) (Homo sapiens, UniProt Q8NER1) (assay: Capsaicin receptor binding assay ([3H]RTX competition, VR1-transfected HEK293 membranes)).
Sequence of human capsaicin receptor (VR1) (Q8NER1 whole entry): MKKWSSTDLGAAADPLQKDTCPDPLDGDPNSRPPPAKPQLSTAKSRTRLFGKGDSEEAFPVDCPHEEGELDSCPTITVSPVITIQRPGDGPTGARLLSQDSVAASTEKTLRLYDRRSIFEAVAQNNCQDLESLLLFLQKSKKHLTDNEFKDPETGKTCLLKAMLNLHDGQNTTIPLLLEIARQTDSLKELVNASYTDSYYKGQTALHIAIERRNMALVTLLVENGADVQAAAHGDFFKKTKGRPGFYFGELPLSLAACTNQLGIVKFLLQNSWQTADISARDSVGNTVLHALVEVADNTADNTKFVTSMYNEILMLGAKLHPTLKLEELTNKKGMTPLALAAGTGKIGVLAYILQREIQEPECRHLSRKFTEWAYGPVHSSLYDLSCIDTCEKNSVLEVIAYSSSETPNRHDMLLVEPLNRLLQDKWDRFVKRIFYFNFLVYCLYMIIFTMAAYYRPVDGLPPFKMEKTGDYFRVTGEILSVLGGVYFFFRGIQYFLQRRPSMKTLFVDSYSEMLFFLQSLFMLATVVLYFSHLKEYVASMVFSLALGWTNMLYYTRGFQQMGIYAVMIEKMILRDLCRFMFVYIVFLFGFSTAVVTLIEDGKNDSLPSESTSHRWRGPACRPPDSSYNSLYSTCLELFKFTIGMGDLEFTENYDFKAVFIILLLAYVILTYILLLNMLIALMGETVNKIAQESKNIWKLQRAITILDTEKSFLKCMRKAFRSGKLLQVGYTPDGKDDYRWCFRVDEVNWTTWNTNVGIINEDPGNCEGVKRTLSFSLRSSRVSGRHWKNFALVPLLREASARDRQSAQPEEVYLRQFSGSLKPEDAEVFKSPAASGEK

Ki, < 1 µM:
CC(C)COCc1nc(Nc2ccc(S(=O)(=O)C(F)(F)F)cc2)c2ccc(-c3ncccc3Cl)nc2n1 [Compound 181, [7-(3-Chloro-pyridin-2-yl)-2-isobutoxymethyl-pyrido[2,3-d]pyrimidin-4-yl]-(4-trifluoromethanesulfonyl-phenyl)-amine]
COCc1nc(Nc2ccc(C(F)(F)F)c(C)c2)c2ccc(-c3ncccc3C(F)(F)F)nc2n1 [Compound 182, [2-Methoxymethyl-7-(3-trifluoromethyl-pyridin-2-yl)-pyrido[2,3-d]pyrimidin-4-yl]-(3-methyl-4-trifluoromethyl-phenyl)-amine]
Cc1cc(Nc2nc(COCC(C)C)nc3nc(-c4ncccc4C)ccc23)ccc1C(F)(F)F [Compound 183, [2-Isobutoxymethyl-7-(3-methyl-pyridin-2-yl)-pyrido[2,3-d]pyrimidin-4-yl]-(3-methyl-4-trifluoromethyl-phenyl)-amine]
CCOCc1nc(Nc2ccc(C(F)(F)F)c(C)c2)c2ccc(-c3ncccc3Cl)nc2n1 [Compound 184, [7-(3-Chloro-pyridin-2-yl)-2-ethoxymethyl-pyrido[2,3-d]pyrimidin-4-yl]-(3-methyl-4-trifluoromethyl-phenyl)-amine]
CCOC(=O)c1nc(Nc2ccc(C(C)(C)C)cc2)c2ccc(-c3ncccc3C)nc2n1 [Compound 185, 4-(4-tert-Butyl-phenylamino)-7-(3-methyl-pyridin-2-yl)-pyrido[2,3-d]pyrimidine-2-carboxylic acid ethyl ester]
O=S(=O)(c1ccc(Nc2nc(CO)nc3cc(-c4ncccc4C(F)(F)F)ccc23)cc1)N1CCCCC1 [Compound 186, [4-[4-(Piperidine-1-sulfonyl)-phenylamino]-7-(3-trifluoromethyl-pyridin-2-yl)-quinazolin-2-yl]-methanol]
CN(C(C)(C)C)S(=O)(=O)c1ccc(Nc2nc(CO)nc3cc(-c4ncccc4C(F)(F)F)ccc23)cc1 [Compound 187, N-tert-Butyl-4-[2-hydroxymethyl-7-(3-trifluoromethyl-pyridin-2-yl)-quinazolin-4-ylamino]-N-methyl-benzenesulfonamide]
COCc1nc(Nc2ccc(OC(F)(F)F)cc2)c2ccc(-c3ncccc3C(F)(F)F)nc2n1 [Compound 188, [2-Methoxymethyl-7-(3-trifluoromethyl-pyridin-2-yl)-pyrido[2,3-d]pyrimidin-4-yl]-(4-trifluoromethoxy-phenyl)-amine]
CC(C)COCc1nc(Nc2ccc(OC(F)(F)F)cc2)c2ccc(-c3ncccc3C(F)(F)F)nc2n1 [Compound 189, [2-Isobutoxymethyl-7-(3-trifluoromethyl-pyridin-2-yl)-pyrido[2,3-d]pyrimidin-4-yl]-(4-trifluoromethoxy-phenyl)-amine]
Cc1cccnc1-c1ccc2c(Nc3ccc(OC(F)(F)F)cc3)nc(COCC(C)C)nc2n1 [Compound 190, [2-Isobutoxymethyl-7-(3-methyl-pyridin-2-yl)-pyrido[2,3-d]pyrimidin-4-yl]-(4-trifluoromethoxy-phenyl)-amine]
COCc1nc(Nc2ccc(C(C)(C)C)nc2)c2ccc(-c3ncccc3C(F)(F)F)nc2n1 [Compound 191, (6-tert-Butyl-pyridin-3-yl)-[2-methoxymethyl-7-(3-trifluoromethyl-pyridin-2-yl)-pyrido[2,3-d]pyrimidin-4-yl]-amine]
CC(C)COCc1nc(Nc2ccc(C(C)(C)C)nc2)c2ccc(-c3ncccc3C(F)(F)F)nc2n1 [Compound 192, (6-tert-Butyl-pyridin-3-yl)-[2-isobutoxymethyl-7-(3-trifluoromethyl-pyridin-2-yl)-pyrido[2,3-d]pyrimidin-4-yl]-amine]
Cc1cccnc1-c1ccc2c(Nc3ccc(C(C)(C)C)nc3)nc(COCC(C)C)nc2n1 [Compound 193, (6-tert-Butyl-pyridin-3-yl)-[2-isobutoxymethyl-7-(3-methyl-pyridin-2-yl)-pyrido[2,3-d]pyrimidin-4-yl]-amine]
CC(C)COCc1nc(Nc2ccc(C(C)(C)C)nc2)c2ccc(-c3ncccc3Cl)nc2n1 [Compound 194, (6-tert-Butyl-pyridin-3-yl)-[7-(3-chloro-pyridin-2-yl)-2-isobutoxymethyl-pyrido[2,3-d]pyrimidin-4-yl]-amine]
COCc1nc(Nc2ccc(OC(F)(F)F)cc2)c2ccc(-c3ncccc3Cl)nc2n1 [Compound 195, [7-(3-Chloro-pyridin-2-yl)-2-methoxymethyl-pyrido[2,3-d]pyrimidin-4-yl]-(4-trifluoromethoxy-phenyl)-amine]
COCc1nc(Nc2ccc(OC(F)(F)F)cc2)c2ccc(-c3ncccc3C)nc2n1 [Compound 196, [2-Methoxymethyl-7-(3-methyl-pyridin-2-yl)-pyrido[2,3-d]pyrimidin-4-yl]-(4-trifluoromethoxy-phenyl)-amine]
COCc1nc(Nc2ccc(C(F)(F)F)c(C)c2)c2ccc(-c3ncccc3Cl)nc2n1 [Compound 197, [7-(3-Chloro-pyridin-2-yl)-2-methoxymethyl-pyrido[2,3-d]pyrimidin-4-yl]-(3-methyl-4-trifluoromethyl-phenyl)-amine]
COCc1nc(Nc2ccc(C(F)(F)F)c(C)c2)c2ccc(-c3ncccc3C)nc2n1 [Compound 198, [2-Methoxymethyl-7-(3-methyl-pyridin-2-yl)-pyrido[2,3-d]pyrimidin-4-yl]-(3-methyl-4-trifluoromethyl-phenyl)-amine]
COCc1nc(Nc2ccc(C(C)(C)C)nc2)c2ccc(-c3ncccc3Cl)nc2n1 [Compound 199, (6-tert-Butyl-pyridin-3-yl)-[7-(3-chloro-pyridin-2-yl)-2-methoxymethyl-pyrido[2,3-d]pyrimidin-4-yl]-amine]
COCc1nc(Nc2ccc(C(C)(C)C)nc2)c2ccc(-c3ncccc3C)nc2n1 [Compound 200, (6-tert-Butyl-pyridin-3-yl)-[2-methoxymethyl-7-(3-methyl-pyridin-2-yl)-pyrido[2,3-d]pyrimidin-4-yl]-amine]
CC(C)(C)c1ccc(Nc2nc(CO)nc3cc(-c4ncccc4C(F)(F)F)cnc23)cc1 [Compound 201, [4-(4-tert-Butyl-phenylamino)-7-(3-trifluoromethyl-pyridin-2-yl)-pyrido[3,2-d]pyrimidin-2-yl]-methanol]
O=S(=O)(c1ccc(Nc2nc(CO)nc3cc(-c4ncccc4C(F)(F)F)cnc23)cc1)N1CCCCC1 [Compound 202, [4-[4-(Piperidine-1-sulfonyl)-phenylamino]-7-(3-trifluoromethyl-pyridin-2-yl)-pyrido[3,2-d]pyrimidin-2-yl]-methanol]
CN(C(C)(C)C)S(=O)(=O)c1ccc(Nc2nc(CO)nc3cc(-c4ncccc4C(F)(F)F)cnc23)cc1 [Compound 203, N-tert-Butyl-4-[2-hydroxymethyl-7-(3-trifluoromethyl-pyridin-2-yl)-pyrido[3,2-d]pyrimidin-4-ylamino]-N-methyl-benzenesulfonamide]
Cc1cccnc1-c1ccc2c(Nc3ccc(C(C)(C)C)cc3)nc(CO)nc2n1 [Compound 204, [4-(4-tert-Butyl-phenylamino)-7-(3-methyl-pyridin-2-yl)-pyrido[2,3d]pyrimidin-2-yl]-methanol]
Cc1cccnc1-c1ccc2c(Nc3ccc(C(F)(F)F)cc3)nc(C(=O)O)nc2n1 [Compound 205, 7-(3-Methyl-pyridin-2-yl)-4-(4-trifluoromethyl-phenylamino)-pyrido[2,3-d]pyrimidine-2-carboxylic acid]
O=C(O)c1nc(Nc2ccc(C(F)(F)F)cc2)c2ccc(-c3ncccc3C(F)(F)F)nc2n1 [Compound 206, 4-(4-Trifluoromethyl-phenylamino)-7-(3-trifluoromethyl-pyridin-2-yl)-pyrido[2,3-d]pyrimidine-2-carboxylic acid]
Cc1cccnc1-c1ccc2c(Nc3ccc(C(C)(C)C)cc3)nc(C(=O)O)nc2n1 [Compound 207, 4-(4-tert-Butyl-phenylamino)-7-(3-methyl-pyridin-2-yl)-pyrido[2,3-d]pyrimidine-2-carboxylic acid]
COCc1nc(Nc2ccc(C(C)(C)C(C)=O)cc2)c2ccc(-c3ncccc3C(F)(F)F)nc2n1 [Compound 208, 3-{4-[2-Methoxymethyl-7-(3-trifluoromethyl-pyridin-2-yl)-pyrido[2,3-d]pyrimidin-4-ylamino]-phenyl}-3-methyl-butan-2-one]
CC(=O)C(C)(C)c1ccc(Nc2nc(COCC(C)C)nc3nc(-c4ncccc4C)ccc23)cc1 [Compound 209, 3-{4-[2-Isobutoxymethyl-7-(3-methyl-pyridin-2-yl)-pyrido[2,3-d]pyrimidin-4-ylamino]-phenyl}-3-methyl-butan-2-one]
CC(=O)C(C)(C)c1ccc(Nc2nc(COCC(C)C)nc3nc(-c4ncccc4Cl)ccc23)cc1 [Compound 210, 3-{4-[7-(3-Chloro-pyridin-2-yl)-2-isobutoxymethyl-pyrido[2,3-d]pyrimidin-4-ylamino]-phenyl}-3-methyl-butan-2-one]
CC(=O)C(C)(C)c1ccc(Nc2nc(COCC(C)C)nc3nc(-c4ncccc4C(F)(F)F)ccc23)cc1 [Compound 211, 3-{4-[2-Isobutoxymethyl-7-(3-trifluoromethyl-pyridin-2-yl)-pyrido[2,3-d]pyrimidin-4-ylamino]-phenyl}-3-methyl-butan-2-one]
COCc1nc(Nc2ccc(C(C)(C)C(C)=O)cc2)c2ccc(-c3ncccc3C)nc2n1 [Compound 212, 3-{4-[2-Methoxymethyl-7-(3-methyl-pyridin-2-yl)-pyrido[2,3-d]pyrimidin-4-ylamino]-phenyl}-3-methyl-butan-2-one]
